Assay results reported in PubChem BioAssay AID624057 (Broad Institute, 2012).
Where “and” joins values, the source holds several entries; their conditions need not be identical. Identical values can stand only once. Calls of active or inactive are those of the source. How the calls were made is not given here.

Legend:
[1] = target: Glycogen synthase kinase-3 beta (Homo sapiens) (UniProt P49841); experiment: lower pTau relative to total Tau in cells – cell-based, SH-SY5Y, ELISA, pTau Ser199, powder samples, dose response (AID 624057)
Glycogen synthase kinase-3 beta (Homo sapiens), sequence (P49841 whole entry, looked up): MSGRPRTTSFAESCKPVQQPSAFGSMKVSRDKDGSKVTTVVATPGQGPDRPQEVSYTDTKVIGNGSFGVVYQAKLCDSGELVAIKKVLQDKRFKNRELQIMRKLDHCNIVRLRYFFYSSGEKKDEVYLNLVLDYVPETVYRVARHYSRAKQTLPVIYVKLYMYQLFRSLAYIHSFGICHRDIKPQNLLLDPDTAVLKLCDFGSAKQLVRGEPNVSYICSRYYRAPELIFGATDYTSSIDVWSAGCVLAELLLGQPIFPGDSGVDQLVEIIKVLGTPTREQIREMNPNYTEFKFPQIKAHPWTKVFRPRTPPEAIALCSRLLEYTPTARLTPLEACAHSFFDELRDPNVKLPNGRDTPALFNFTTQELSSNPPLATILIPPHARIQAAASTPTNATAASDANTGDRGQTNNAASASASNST

[2] = as above; conditions: measured here: cell survival (total Tau) top dose, at 35 µM, stronger effect = lower value

| Structure (SMILES) | IC50 [1] | viability [2] [%] |
| --- | --- | --- |
| CC1(C)CC(=O)C2=C(C1)Nc1n[nH]c(C(F)(F)F)c1C2(C)c1ccccc1 (stereo not drawn) | 1870 nM |  |
| Cc1[nH]nc2c1C(c1cccc3nonc13)C1=C(CC(C)(C)CC1=O)N2 (stereo not drawn) | 2270 nM | 112 |
| Cc1[nH]nc2c1C(c1cccc(C(F)(F)F)c1)C1=C(CC(C)(C)CC1=O)N2 (stereo not drawn) | 4680 nM |  |
| Cc1[nH]nc2c1C(c1cccc(C#N)c1)C1=C(CC(C)(C)CC1=O)N2 (stereo not drawn) | 2500 nM | 119 |
| CC1(C)CC(=O)C2=C(C1)Nc1n[nH]c(C(F)(F)F)c1C2c1ccccc1 (stereo not drawn) | 510 nM |  |
| Cc1[nH]nc2c1C(c1ccccc1F)C1=C(CC(C)(C)CC1=O)N2 (stereo not drawn) |  | 113 |
| CC1(C)CC(=O)C2=C(C1)Nc1n[nH]c(C(F)(F)F)c1C2c1cccc(F)c1C(F)(F)F (stereo not drawn) | 1380 nM | 57.1 |
| CC1(C)CC(=O)C2=C(C1)Nc1n[nH]c(C(F)(F)F)c1C2c1ccccc1C(F)(F)F (stereo not drawn) | 410 nM |  |

Further lines, with some results ahead:

| IC50 [1] | Structure (SMILES) | viability [2] [%] |
| --- | --- | --- |
| 7100 nM | COc1ccccc1C1C2=C(CC(C)(C)CC2=O)Nc2n[nH]c(C)c21 (stereo not drawn) |  |
| > 35000 nM (inactive) | Cc1[nH]nc2c1[C@H](c1ccccc1C(F)(F)F)C1=C(CC(C)(C)CC1=O)N2 |  |
| 2490 nM | Cc1[nH]nc2c1C(c1ccccc1Cl)C1=C(CC(C)(C)CC1=O)N2 (stereo not drawn) |  |
| 4240 nM | Cc1[nH]nc2c1C(c1ccccc1C(F)(F)F)C1=C(CC(C)(C)CC1=O)N2 (stereo not drawn) |  |
| > 35000 nM (inactive) | COc1ccccc1[C@H]1C2=C(CC(C)(C)CC2=O)Nc2n[nH]c(C(F)(F)F)c21 |  |
| 2750 nM and 760 nM | COc1ccccc1C1C2=C(CC(C)(C)CC2=O)Nc2n[nH]c(C(F)(F)F)c21 (stereo not drawn) |  |
| 560 nM | COc1ccccc1[C@@H]1C2=C(CC(C)(C)CC2=O)Nc2n[nH]c(C(F)(F)F)c21 |  |
| 2270 nM | Cc1[nH]nc2c1[C@@H](c1ccccc1C(F)(F)F)C1=C(CC(C)(C)CC1=O)N2 | 110 |
| 2850 nM | CSc1ccccc1C1C2=C(CC(C)(C)CC2=O)Nc2n[nH]c(C)c21 (stereo not drawn) | 106 |
| 6570 nM and > 35000 nM (inactive) | COc1ccccc1[C@@H]1C2=C(CC(C)(C)CC2=O)Nc2n[nH]c(C)c21 |  |
